In patent US20050118290A1, “Compositions and method for treatment of steroid/nuclear receptor-mediated diseases” (University of Singapore, priority 2003, published 2005):
In brackets after ≈: the same amount, converted by molar mass.

Assays:
Format in all cases: cell-based
PPARα = molecular target: T1, PPARα (Homo sapiens, UniProt Q07869); assay: Chimeric Gal4DBD-PPARαLBD receptor / UASg-luciferase reporter gene assay in HeLa cells; conditions: with WY14643 30×10^−6M
T1 construct: expressed in transfected cells; host or cells: HeLa
T1 sequence (Q07869 239-466 limits assumed): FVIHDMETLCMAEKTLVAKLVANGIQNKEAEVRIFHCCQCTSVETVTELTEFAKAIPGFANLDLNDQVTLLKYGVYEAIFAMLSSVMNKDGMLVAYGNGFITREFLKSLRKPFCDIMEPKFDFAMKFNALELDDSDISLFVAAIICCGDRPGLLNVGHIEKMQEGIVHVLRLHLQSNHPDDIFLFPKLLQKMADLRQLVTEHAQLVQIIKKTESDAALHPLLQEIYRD
Excerpt: (§1) In an example of such a reporter gene assay, a plasmid containing chimeric Ga14DBD-PPARLBD receptor cDNA was constructed by excising the ligand binding domain (LBD) of full length PPARγ and PPARα and ligating the resulting fragments in frame to the Ga14-DNA binding domain (DBD) of Saccharomyces cerevisiae in a pM vector (Clontech). Specifically, to construct Ga14DBD-PPARγLBD plasmid, pSG5 expression vector (Stratagene) containing full length PPARγ was excised with Rsa I and blunt ligated to Hind III site of pMGa14DBD expression plasmid (Clontech). To construct Ga14DBD-PPARαLBD plasmid, pSG5 expression vector (Stratagene) containing full length PPARα was excised with BstU I and BamH I and blunt-end ligated in frame to BamH I site of pMGa14DBD expression plasmid (Clontech). […] Ga14 DBD binds very strongly to the exogenous UASg promoter, thereby giving rise to a sensitive and specific assay. To measure PPARγ and PPARα agonist activity, HeLa cells were grown in 24-well microtiter plates and then transiently co-transfected with the two plasmids (chimeric PPAR receptor and UASg reporter gene) using Lipofectamine (Invitrogen). […] Concurrently, cells exposed to known PPAR ligands served as positive controls. Replicate wells, exposed to the vehicle solvent (i.e., ethanol or methanol) in which herbal extracts were dissolved, were used as negative controls. After the 40 hr incubation period, cells were rinsed with phosphate buffered saline (PBS), lysis buffer was added, and cell lysates were collected for measurement of luciferase activity using a luminometer. […] All data points are in triplicate. The data points represent the mean of triplicate wells. Luciferase activity in such an assay accurately reflects the activity of any ligands on PPARγ or PPARα.

Progesterone Receptor = molecular target: T2, Progesterone Receptor (Homo sapiens, UniProt P06401); assay: PR (ARE)2-Luc luciferase reporter gene assay; conditions: Example 16; progesterone 100×10^−9M, 10 × 10^−9M (Table 11)
T2 construct: expressed in transfected cells; host or cells: HeLa (named for the formononetin and daidzein experiments)
T2 sequence (P06401 1-933): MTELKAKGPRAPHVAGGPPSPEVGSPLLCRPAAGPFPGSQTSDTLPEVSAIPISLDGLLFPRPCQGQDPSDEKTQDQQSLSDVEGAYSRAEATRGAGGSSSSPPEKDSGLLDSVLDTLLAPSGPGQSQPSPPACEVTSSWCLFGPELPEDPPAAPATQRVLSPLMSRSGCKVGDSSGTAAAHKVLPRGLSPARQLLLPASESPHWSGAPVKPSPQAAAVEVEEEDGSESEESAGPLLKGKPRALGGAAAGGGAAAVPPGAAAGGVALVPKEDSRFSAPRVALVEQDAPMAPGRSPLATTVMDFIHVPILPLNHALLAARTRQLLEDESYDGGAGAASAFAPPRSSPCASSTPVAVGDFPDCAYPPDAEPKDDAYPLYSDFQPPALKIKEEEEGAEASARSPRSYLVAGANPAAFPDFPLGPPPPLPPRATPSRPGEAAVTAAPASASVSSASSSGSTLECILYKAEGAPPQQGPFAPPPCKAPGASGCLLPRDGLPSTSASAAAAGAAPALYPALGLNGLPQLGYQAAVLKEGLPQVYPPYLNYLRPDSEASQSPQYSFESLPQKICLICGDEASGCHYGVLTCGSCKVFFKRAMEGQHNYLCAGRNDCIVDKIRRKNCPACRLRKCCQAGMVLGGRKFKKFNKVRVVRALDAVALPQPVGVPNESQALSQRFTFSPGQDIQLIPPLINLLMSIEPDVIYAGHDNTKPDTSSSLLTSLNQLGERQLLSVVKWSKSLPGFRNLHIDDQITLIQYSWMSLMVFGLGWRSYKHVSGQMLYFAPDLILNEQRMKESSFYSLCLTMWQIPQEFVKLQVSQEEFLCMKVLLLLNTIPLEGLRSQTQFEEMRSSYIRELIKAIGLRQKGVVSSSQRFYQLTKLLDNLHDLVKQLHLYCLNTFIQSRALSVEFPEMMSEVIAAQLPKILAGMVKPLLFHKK
Description: (§2) The capacity of HQ extract to activate other steroid receptors, namely AR, PR, GR, ERα and ERβ was examined. […] The (ARE)2-Luc plasmid consist of two repeats of Androgen Response Element (ARE) cloned upstream of the Luciferase Reporter gene in a pGL3-Basic vector (Promega).
(§3) AR, PR, GR and ERα and […] were determined by comparing luciferase activity in test cells with control cells exposed to vehicle (i.e., ethanol or methanol) only, analogous to the determination of PPAR activity as described in the previous examples.

human androgen receptor = molecular target: T3, human androgen receptor (Homo sapiens, UniProt P10275); assay: AR (ARE)2-Luc luciferase reporter gene assay in HeLa cells
T3 construct: expressed in transfected cells; host or cells: HeLa
T3 sequence (P10275 1-920): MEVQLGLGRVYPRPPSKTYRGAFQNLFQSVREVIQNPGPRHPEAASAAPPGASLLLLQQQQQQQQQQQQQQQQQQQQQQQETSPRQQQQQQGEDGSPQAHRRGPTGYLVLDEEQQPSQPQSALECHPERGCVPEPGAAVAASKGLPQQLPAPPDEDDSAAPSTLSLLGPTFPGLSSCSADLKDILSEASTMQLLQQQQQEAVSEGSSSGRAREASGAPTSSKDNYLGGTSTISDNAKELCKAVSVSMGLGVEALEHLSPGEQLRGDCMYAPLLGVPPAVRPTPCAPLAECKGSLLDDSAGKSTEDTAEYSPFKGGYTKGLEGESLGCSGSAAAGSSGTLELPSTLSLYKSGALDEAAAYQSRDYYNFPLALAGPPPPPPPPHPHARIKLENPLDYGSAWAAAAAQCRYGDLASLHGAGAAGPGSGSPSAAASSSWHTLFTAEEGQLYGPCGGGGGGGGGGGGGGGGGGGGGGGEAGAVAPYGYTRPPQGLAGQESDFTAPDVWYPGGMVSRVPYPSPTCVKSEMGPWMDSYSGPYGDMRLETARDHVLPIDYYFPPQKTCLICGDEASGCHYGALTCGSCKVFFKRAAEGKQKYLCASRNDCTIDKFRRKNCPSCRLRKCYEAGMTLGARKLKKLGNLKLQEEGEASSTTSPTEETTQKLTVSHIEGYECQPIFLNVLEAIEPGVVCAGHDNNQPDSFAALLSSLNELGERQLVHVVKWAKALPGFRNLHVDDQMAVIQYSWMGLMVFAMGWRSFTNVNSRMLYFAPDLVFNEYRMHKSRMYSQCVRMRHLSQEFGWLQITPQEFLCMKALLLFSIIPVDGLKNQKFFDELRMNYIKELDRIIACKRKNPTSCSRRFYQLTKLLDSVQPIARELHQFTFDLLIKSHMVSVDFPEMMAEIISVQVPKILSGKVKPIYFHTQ
Description: as §2, §3

PPARγ = molecular target: T4, PPARγ (Homo sapiens, UniProt P37231); assay: Chimeric Gal4DBD-PPARγLBD receptor / UASg-luciferase reporter gene assay in HeLa cells
T4 construct: expressed in transfected cells; host or cells: HeLa
T4 sequence (P37231 238-503 limits assumed): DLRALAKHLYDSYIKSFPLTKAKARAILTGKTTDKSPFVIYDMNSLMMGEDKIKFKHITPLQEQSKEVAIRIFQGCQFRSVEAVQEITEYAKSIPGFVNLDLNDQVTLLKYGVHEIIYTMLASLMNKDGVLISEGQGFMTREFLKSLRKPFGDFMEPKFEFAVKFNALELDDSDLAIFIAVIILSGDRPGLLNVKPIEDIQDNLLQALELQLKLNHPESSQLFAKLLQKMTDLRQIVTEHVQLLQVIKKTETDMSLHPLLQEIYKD
Excerpt: as §1

[1] = GW9662 0.1 ×10^−6M (first line)
[2] = GW9662 0.1 ×10^−6M (second line, r12)

3′,7-Dihydroxy-4′-methoxyisoflavone [calycosin]
increase of the activity of maximal doses of PPARα agonist (PPARα): 7 fold
increase of the activity of maximal doses of PR agonist (Progesterone Receptor): 3 fold
increase of the activity of maximal doses of AR agonist (human androgen receptor; with dihydrotestosterone 1×10^−9M): 3 fold

CCCCC/C=C/C=C1/C(=O)C=C[C@@H]1C/C=C\CCCC(=O)O [Compound 15DPGJ2, 15-deoxy-δ12,14, Prostaglandin J2, reference compound]
EC50 (PPARγ activity) (PPARγ; FIG. 1A, HeLa cells): 0.5 µg/mL (≈ 1.58 µM)

O=C(Nc1ccccc1)c1cc([N+](=O)[O-])ccc1Cl [GW9662, reference compound]
Luciferase activity (% Pioglitazone 30 × 100^−6M ± SE), Piogliltazone (30 × 10^−6M) (PPARγ; [1]): 97 ± 23.8%
Luciferase activity (% Pioglitazone 30 × 100^−6M ± SE), Vehicle (DMSO) (PPARγ; [1]): 13.8 ± 0.207%
Luciferase activity (% Pioglitazone 30 × 100^−6M ± SE), Piogliltazone (30 × 10^−6M) (PPARγ; [2]): 114 ± 5%
Luciferase activity (% Pioglitazone 30 × 100^−6M ± SE), Vehicle (DMSO) (PPARγ; [2]): 13.8 ± 2.28%
Luciferase activity (% Pioglitazone 30 × 100^−6M ± SE), Piogliltazone (30 × 10^−6M) (PPARγ; GW9662 1 ×10^−6M): 77.2 ± 11.4%
Luciferase activity (% Pioglitazone 30 × 100^−6M ± SE), Vehicle (DMSO) (PPARγ; GW9662 1 ×10^−6M): 23.5 ± 2.74%
Luciferase activity (% Pioglitazone 30 × 100^−6M ± SE), Piogliltazone (30 × 10^−6M) (PPARγ; GW9662 10 ×10^−6M): 40.6 ± 12.3%
Luciferase activity (% Pioglitazone 30 × 100^−6M ± SE), Vehicle (DMSO) (PPARγ; GW9662 10 ×10^−6M): 39.3 ± 4.38%
PPARγ activity on its own (PPARγ; Table 12): weak PPARγ agonistic activity
doses that inhibited the PPARγ effects of pioglitazone (PPARγ; with pioglitazone 30 × 10^−6M, dose-dependent): above 1 ×10^−6M

CC1(COc2ccc(CC3SC(=O)NC3=O)cc2)CCCCC1 (stereo not shown) [ciglitazone, reference compound]
Luciferase activity ± SEM (% ciglitazone 10 × 10^−6 M), substance alone (PPARγ; 0.1 ×10^−6 g/mL): 15.4 ± 0.81%
Luciferase activity ± SEM (% ciglitazone 10 × 10^−6 M), substance alone (PPARγ; 0.3 ×10^−6 g/mL): 21.7 ± 1.52%
Luciferase activity ± SEM (% ciglitazone 10 × 10^−6 M), substance alone (PPARγ; 1.0 ×10^−6 g/mL): 55.3 ± 7.99%
Luciferase activity ± SEM (% ciglitazone 10 × 10^−6 M), substance alone (PPARγ; 3.0 ×10^−6 g/mL): 100 ± 6.13%
Luciferase activity ± SEM (% ciglitazone 10 × 10^−6 M), HQ extract + ciglitazone 10 × 10^−6 M (PPARγ; HQ extract 0.0 ×10^−6 g/mL (ciglitazone 10 × 10^−6 M only)): 100 ± 2.91%

O=c1c(-c2ccc(O)cc2)coc2cc(O)cc(O)c12 [genistein]
Luciferase activity (Fold ± SE), PPAR activity at fixed dose (PPARγ; GW9662 0 ×10^−6M, fixed doses: HQ Water extract 8 × 10^−6 g/mL, HQ DCM extract 50 × 10^−6 g/mL, Formononetin, Genistein 10 × 10^−6 M): 7.37 ± 0.128 Fold
Luciferase activity (Fold ± SE), PPAR activity at fixed dose (PPARγ; GW9662 0.3 ×10^−6M, fixed doses): 93.6 ± 2.47 Fold
Luciferase activity (Fold ± SE), PPAR activity at fixed dose (PPARγ; GW9662 1 ×10^−6M, fixed doses): 83.9 ± 4.37 Fold
Luciferase activity (Fold ± SE), PPAR activity at fixed dose (PPARγ; GW9662 3 ×10^−6M, fixed doses): 82.5 ± 2.63 Fold
Luciferase activity (Fold ± SE), PPAR activity at fixed dose (PPARγ; GW9662 10 ×10^−6M, fixed doses): 67.4 ± 1.52 Fold
Luciferase activity (Fold ± SE), PPAR activity at fixed dose (PPARγ; GW9662 30 ×10^−6M, fixed doses): 39.5 ± 0.403 Fold
intrinsic agonistic AR activity (human androgen receptor; 0.1 to 30×10^−6M, no dihydrotestosterone): does not display any intrinsic agohistic AR activity
further increase of the activity of saturating doses of dihydrotestosterone (human androgen receptor; dihydrotestosterone 10×10^−9M, FIG. 2A): 5 fold
effect on the activity of dihydrotestosterone on AR (human androgen receptor; fixed 3×10^−6 M, dihydrotestosterone 0.01 to 10×10^−9M, FIG. 2B): augmented
